Measurements taken from patent publication US20190076384A1, “METHODS FOR TREATING UREA CYCLE DISORDERS” (priority 2017, published 2019).
Read-outs that look alike come from different tables or passages of the source.

How the values were obtained:
CYP1A2 = molecular target: T1, CYP1A2 (Homo sapiens, UniProt P05177); assay type: in vitro ADME; conditions: 7-ethoxyresorufin-O-deethylase, 5 mM
T1 construct: from tissue; host or cells: human liver microsomes
T1 sequence (P05177 1-516): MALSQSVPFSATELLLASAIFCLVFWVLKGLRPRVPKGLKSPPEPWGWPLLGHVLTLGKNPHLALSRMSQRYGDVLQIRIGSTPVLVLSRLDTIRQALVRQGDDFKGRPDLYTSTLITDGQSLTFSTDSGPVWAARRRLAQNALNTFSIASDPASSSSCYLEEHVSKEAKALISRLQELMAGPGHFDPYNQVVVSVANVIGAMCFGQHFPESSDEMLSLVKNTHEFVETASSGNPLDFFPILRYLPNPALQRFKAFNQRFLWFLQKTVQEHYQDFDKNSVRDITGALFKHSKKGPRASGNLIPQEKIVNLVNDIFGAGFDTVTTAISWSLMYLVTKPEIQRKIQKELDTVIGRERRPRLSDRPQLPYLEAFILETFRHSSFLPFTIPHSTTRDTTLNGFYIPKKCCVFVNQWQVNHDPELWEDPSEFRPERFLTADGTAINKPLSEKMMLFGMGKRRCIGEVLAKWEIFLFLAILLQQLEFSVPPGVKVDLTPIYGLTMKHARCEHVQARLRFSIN

CYP2C19 = molecular target: T2, CYP2C19 (Homo sapiens, UniProt P33261); assay type: in vitro ADME; conditions: S-Mephenytoin 4′-hydroxylase, 5 mM
T2 construct: from tissue; host or cells: human liver microsomes

CYP3A4/5 = assay type: in vitro ADME, human; conditions: 5 mM
[1] = assay type: in vivo, human
Description: Blood samples were collected on Days 1 and 5 at the following time points: predose, 0.5, 1, 2, 3, 4, 6, 8, 10, 12, 16, and 24 hours postdose. In addition, five plasma PK samples for GPB analysis were collected on Day 4 at the following time points: at 1 minute, 30 minutes, and 1 hour following the first morning dose of RAVICTI; at 30 minutes and 1 hour post second dose of RAVICTI.

[2] = Safety and tolerability of RAVICTI coadministered with midazolam; assay type: in vivo, human
Description: Safety: Safety and tolerability were assessed through adverse events (AEs), clinical laboratory results, physical examination findings, vital sign measurements, and electrocardiograms (ECGs).
Safety: Safety data were summarized by treatment and time point. Descriptive statistics (mean, standard deviation [SD], minimum, median, maximum, and sample size [N]) were calculated for quantitative safety data and frequency counts were compiled for classification of qualitative safety data. AE verbatim terms were mapped to preferred terms and system organ classes using the Medical Dictionary for Regulatory Activities (MedDRA®) (Version 16.1). Concomitant medications were coded with the World Health Organization (WHO) Dictionary version 1Mar. 2013.

Cytochrome P450 2C9 = Cytochrome P450 2C9 (Homo sapiens, UniProt P11712); assay: clinical; conditions: multiple doses of RAVICTI
Description: Methodology: This was an open-label, 2-period, monosequence crossover, drug-drug interaction (DDI) study of RAVICTI and celecoxib in healthy male and female subjects.
Test Product, Dose, Duration, and Mode of Administration: In Treatment A (Period 1), subjects received 200 mg celecoxib (1×200 mg capsule) administered orally with approximately 240 mL of water following an overnight fast and approximately 5 minutes prior to the start of a standard breakfast on Day 1.
Pharmacokinetics: Blood samples (4 mL) for the analysis of plasma celecoxib were collected on Days 1 (Period 1) and 4 (Period 2) at the following time points: predose (Hour 0) and 1, 2, 3, 4, 6, 8, 12, 16, 24, 36, 48, 60, and 72 hours postdose. A blood sample (6 mL) for CYP2C9 genotyping was collected at screening to exclude any subjects with a slow metabolizer genotype (i.e., CYP2C9*2/*2, CYP2C9*2/*3, CYP2C9*1/*3, and CYP2C9*3/*3). PK parameters for celecoxib in plasma were computed following Day 1 (Period 1) and Day 4 (Period 2) blood draws and included AUC0-t, AUC0-inf, AUC%extr, Cmax, tmax, t1/2, kel, and CL/F.
Pharmacokinetics: The possible DDI was examined between co-administration of RAVICTI and celecoxib (Treatment B, test) and celecoxib administered alone (Treatment A, reference). An analysis of variance (ANOVA) was performed with treatment as a fixed effect and subject as a random effect. Data for AUC0-t, AUC0-inf, and Cmax, as appropriate, were ln-transformed prior to analysis. The 90% confidence intervals (CIs) of the test group means relative to the reference group means were obtained by taking the antilog of the corresponding 90% CIs for the differences between the means on the log scale, i.e., ratio of geometric least-squares (LS) means.

CYP2C9 = CYP2C9 (Homo sapiens, UniProt P11712); conditions: Diclofenac 4′-hydroxylase, 5 mM
CYP2D6 = CYP2D6 (Homo sapiens, UniProt P10635); conditions: Bufuralol 1′-hydroxylase, 5 mM
[3] = RAVICTI coadministered with midazolam, 24 healthy subjects

Sequence of CYP2D6 (P10635 whole entry): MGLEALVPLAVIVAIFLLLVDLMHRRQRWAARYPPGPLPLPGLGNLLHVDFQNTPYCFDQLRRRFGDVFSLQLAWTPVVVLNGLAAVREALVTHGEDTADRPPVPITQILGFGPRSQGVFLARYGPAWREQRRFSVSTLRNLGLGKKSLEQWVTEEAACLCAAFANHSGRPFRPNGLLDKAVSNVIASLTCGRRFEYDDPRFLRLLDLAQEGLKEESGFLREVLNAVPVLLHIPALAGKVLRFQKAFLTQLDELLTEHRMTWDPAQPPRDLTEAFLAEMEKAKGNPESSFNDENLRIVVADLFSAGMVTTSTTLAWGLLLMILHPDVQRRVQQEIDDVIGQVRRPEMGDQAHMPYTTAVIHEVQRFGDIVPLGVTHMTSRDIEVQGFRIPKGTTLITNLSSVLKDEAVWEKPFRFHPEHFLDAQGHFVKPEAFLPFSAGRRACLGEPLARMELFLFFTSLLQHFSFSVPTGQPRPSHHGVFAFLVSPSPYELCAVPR
T2 sequence (P33261 whole entry): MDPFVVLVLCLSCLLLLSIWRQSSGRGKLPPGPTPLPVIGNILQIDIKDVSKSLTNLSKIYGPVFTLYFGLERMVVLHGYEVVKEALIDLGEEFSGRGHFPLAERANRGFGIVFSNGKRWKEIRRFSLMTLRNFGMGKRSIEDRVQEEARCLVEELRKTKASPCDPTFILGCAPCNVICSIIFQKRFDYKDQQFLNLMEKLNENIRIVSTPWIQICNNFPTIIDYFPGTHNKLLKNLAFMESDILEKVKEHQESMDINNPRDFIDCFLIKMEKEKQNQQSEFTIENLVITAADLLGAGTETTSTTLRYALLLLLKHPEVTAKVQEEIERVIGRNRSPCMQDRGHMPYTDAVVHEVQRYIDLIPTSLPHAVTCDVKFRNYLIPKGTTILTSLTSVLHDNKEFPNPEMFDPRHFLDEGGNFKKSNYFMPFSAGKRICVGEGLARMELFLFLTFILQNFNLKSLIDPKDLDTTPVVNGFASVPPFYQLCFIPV
Sequence of CYP2C9 (P11712 whole entry): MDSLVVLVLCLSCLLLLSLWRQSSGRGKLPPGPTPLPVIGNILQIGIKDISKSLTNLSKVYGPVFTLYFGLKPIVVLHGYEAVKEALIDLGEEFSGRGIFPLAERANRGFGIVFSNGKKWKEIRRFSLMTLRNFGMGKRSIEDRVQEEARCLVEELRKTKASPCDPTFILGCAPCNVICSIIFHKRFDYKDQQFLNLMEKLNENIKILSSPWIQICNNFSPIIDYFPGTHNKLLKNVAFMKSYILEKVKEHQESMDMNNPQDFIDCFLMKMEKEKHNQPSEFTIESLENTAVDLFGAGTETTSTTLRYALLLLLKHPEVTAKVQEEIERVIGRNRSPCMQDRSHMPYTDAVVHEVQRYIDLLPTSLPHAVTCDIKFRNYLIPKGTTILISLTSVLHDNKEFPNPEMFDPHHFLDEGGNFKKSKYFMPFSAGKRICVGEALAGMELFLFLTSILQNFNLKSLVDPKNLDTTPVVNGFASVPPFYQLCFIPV
Sequence of Cytochrome P450 2C9 (P11712 whole entry): as above

Compound: O=C(CCCc1ccccc1)OCC(COC(=O)CCCc1ccccc1)OC(=O)CCCc1ccccc1 [RAVICTI, benzenebutanoic acid, 1′,1″-(1,2,3-propanetriyl) ester]
- % Inhibition (CYP1A2; pre-incubation time 0 min): 5%
- % Inhibition (CYP1A2; pre-incubation time 30 min): 8%
- % Inhibition (CYP2C19; pre-incubation time 0 min): 8%
- % Inhibition (CYP2C19; pre-incubation time 30 min): 7%
- % Inhibition (CYP3A4/5; Midazolam 1′-hydroxylase, pre-incubation time 0 min): 19%
- % Inhibition (CYP3A4/5; Midazolam 1′-hydroxylase, pre-incubation time 30 min): 24%
- % Inhibition (CYP3A4/5; Testosterone 6β-hydroxylase, pre-incubation time 0 min): 15%
- % Inhibition (CYP3A4/5; Testosterone 6β-hydroxylase, pre-incubation time 30 min): 6%
- Plasma glycerol phenylbutyrate concentrations ([1]; Day 4 samples, not quantifiable, LLOQ=1.00 ng/mL): < 1.00 ng/mL
- Intact glycerol phenylbutyrate in plasma ([1]; healthy subjects, RAVICTI oral): not detectable
- deaths, SAEs, discontinuations due to AEs [2, 3]: no deaths, serious adverse events (SAEs), or subject discontinuations due to AEs
- subjects experiencing TEAEs [2, 3]: 6 subjects
- total TEAEs [2, 3]: 10
- safety and tolerability (conclusion) ([2]; oral RAVICTI coadministered with midazolam, healthy adults): safe and generally well tolerated
- inhibition of CYP2C9 activity in vivo (Cytochrome P450 2C9): did not appear to inhibit
- % Inhibition (CYP2C9; pre-incubation time 0 min): 35%
- % Inhibition (CYP2C9; pre-incubation time 30 min): 19%
- % Inhibition (CYP2D6; pre-incubation time 0 min): 1%
- % Inhibition (CYP2D6; pre-incubation time 30 min): 4%
